Assay results taken from ChEMBL document CHEMBL2401715, “Synthesis, antitumor and antibacterial activities of some novel tetrahydrobenzo[4,5]thieno[2,3-d]pyrimidine derivatives” (Eur J Med Chem, 2013).

Columns and labels:
Staphylococcus aureus = test: Antibacterial activity against Staphylococcus aureus ATCC 12600 assessed as growth inhibition after 24 to 48 hrs by kirby-bauer disc diffusion method; type: functional; further: test concentration or dose not given here
Bacillus subtilis = test: Antibacterial activity against Bacillus subtilis ATCC 6051 assessed as growth inhibition after 24 to 48 hrs by kirby-bauer disc diffusion method; type: functional; further: test concentration or dose not given here
Pseudomonas aeruginosa = test: Antibacterial activity against Pseudomonas aeruginosa ATCC 10145 assessed as growth inhibition after 24 to 48 hrs by kirby-bauer disc diffusion method; type: functional; further: test concentration or dose not given here
MCF7 = test: Cytotoxicity against human MCF7 cells assessed as cell survival after 48 hrs by SRB assay; type: functional, cell-based; conditions: MCF7, 48 h
HepG2 = test: Cytotoxicity against human HepG2 cells assessed as cell survival after 48 hrs by SRB assay; type: functional, cell-based; conditions: HepG2, 48 h
Escherichia coli = test: Antibacterial activity against Escherichia coli ATCC 11775 assessed as growth inhibition after 24 to 48 hrs by kirby-bauer disc diffusion method; type: functional, DSM 30083 = JCM 1649; further: test concentration or dose not given here

| Compound | diameter of the inhibition zone (DIZ) (Staphylococcus aureus) | diameter of the inhibition zone (DIZ) (Bacillus subtilis) | diameter of the inhibition zone (DIZ) (Pseudomonas aeruginosa) | IC50 (MCF7) | IC50 (HepG2) | diameter of the inhibition zone (DIZ) (Escherichia coli) |
| --- | --- | --- | --- | --- | --- | --- |
| COc1cc(-c2nc3sc4c(c3c(=O)n2-c2nc3cc(C)ccc3s2)CCCC4)cc(OC)c1OC | 14 mm | 11 mm | 12 mm | 65.6 µM | > 192 µM | 12 mm |
| COc1cc(-c2nc3sc4c(c3c(=O)n2C(Cc2ccccc2)C(=O)O)CCCC4)cc(OC)c1OC (stereo unspecified) | 10 mm | 12 mm | 13 mm | 50.1 µM | 19.4 µM | 13 mm |
| COc1cc(-c2nc3sc4c(c3c(=O)n2C(Cc2cc3ccccc3[nH]2)C(=O)O)CCCC4)cc(OC)c1OC (stereo unspecified) | 0 mm | 0 mm | 0 mm | > 179 µM | 30.9 µM | 0 mm |
| COc1cc(-c2nc3sc4c(c3c(=O)n2C2CONC2=O)CCCC4)cc(OC)c1OC (stereo unspecified) | 15 mm | 15 mm | 14 mm | 54.9 µM | 24.9 µM | 17 mm |
| COc1cc(-c2nc3sc4c(c3c(=O)n2-c2cc(=O)[nH]c(=O)[nH]2)CCCC4)cc(OC)c1OC | 11 mm | 11 mm | 14 mm | 83.3 µM | 86.4 µM | 14 mm |
| COc1cc(-c2nc3sc4c(c3c(=O)n2-c2nc3ccccc3s2)CCCC4)cc(OC)c1OC | 14 mm | 13 mm | 15 mm | 11.5 µM | 5.14 µM | 15 mm |
| COc1cc(-c2nc3sc4c(c3c(=O)n2-c2nc3cc([N+](=O)[O-])ccc3s2)CCCC4)cc(OC)c1OC | 15 mm | 14 mm | 14 mm | 21.6 µM | 36.9 µM | 15 mm |
| NC(=S)n1c(/C=C/c2ccccc2)nc2sc3c(c2c1=O)CCCC3 | 14 mm | 13 mm | 13 mm | 10.6 µM | 17.7 µM | 13 mm |
| NC(=O)n1c(/C=C/c2ccccc2)nc2sc3c(c2c1=O)CCCC3 | 16 mm | 14 mm | 15 mm | 13.4 µM | 18.5 µM | 14 mm |
| O=C(NO)n1c(/C=C/c2ccccc2)nc2sc3c(c2c1=O)CCCC3 | 15 mm | 12 mm | 14 mm | 23.9 µM | 52 µM | 13 mm |
| O=C(O)c1ccc(-n2c(/C=C/c3ccccc3)nc3sc4c(c3c2=O)CCCC4)cc1 | 19 mm | 14 mm | 14 mm | 45.3 µM | 36.9 µM | 16 mm |
| NS(=O)(=O)c1ccc(-n2c(/C=C/c3ccccc3)nc3sc4c(c3c2=O)CCCC4)cc1 | 14 mm | 14 mm | 15 mm | 0.43 µM | 1.29 µM | 15 mm |
| O=C(O)C(Cc1ccccc1)n1c(/C=C/c2ccccc2)nc2sc3c(c2c1=O)CCCC3 (stereo unspecified) | 16 mm | 13 mm | 14 mm | 45.3 µM | 31.5 µM | 14 mm |
| O=C(O)C(Cc1cc2ccccc2[nH]1)n1c(/C=C/c2ccccc2)nc2sc3c(c2c1=O)CCCC3 (stereo unspecified) | 0 mm | 0 mm | 0 mm | > 202 µM | 29.7 µM | 0 mm |
| O=C1NOCC1n1c(/C=C/c2ccccc2)nc2sc3c(c2c1=O)CCCC3 (stereo unspecified) | 19 mm | 15 mm | 16 mm | 39.4 µM | 6.86 µM | 15 mm |
| O=c1cc(-n2c(/C=C/c3ccccc3)nc3sc4c(c3c2=O)CCCC4)[nH]c(=O)[nH]1 | 18 mm | 16 mm | 15 mm | 11.2 µM | 67.2 µM | 15 mm |
| O=c1c2c3c(sc2nc(/C=C/c2ccccc2)n1-c1nc2ccccc2s1)CCCC3 | 16 mm | 13 mm | 14 mm | 4.3 µM | 10.6 µM | 13 mm |
| Cc1ccc2sc(-n3c(/C=C/c4ccccc4)nc4sc5c(c4c3=O)CCCC5)nc2c1 | 16 mm | 15 mm | 14 mm | 15.8 µM | 36.7 µM | 14 mm |
| O=c1c2c3c(sc2nc(/C=C/c2ccccc2)n1-c1nc2cc([N+](=O)[O-])ccc2s1)CCCC3 | 15 mm | 14 mm | 15 mm | 1.23 µM | 10.3 µM | 14 mm |
| O=c1[nH]c(/C=C/c2ccccc2)nc2sc3c(c12)CCCC3 | 0 mm | 0 mm | 0 mm | 28.2 µM | 12 µM | 0 mm |
| O=c1[nH]c(/C=C/c2ccccc2[N+](=O)[O-])nc2sc3c(c12)CCCC3 | 0 mm | 0 mm | 0 mm | 11.9 µM | 11.9 µM | 10 mm |
| C/C(=C\c1ccccc1)c1nc2sc3c(c2c(=O)[nH]1)CCCC3 | 0 mm | 0 mm | 0 mm | 24.8 µM | 33.2 µM | 0 mm |
| COc1cc(-c2nc(NC(=O)NO)c3c4c(sc3n2)CCCC4)cc(OC)c1OC | 0 mm | 0 mm | 0 mm | 14.2 µM | 2.32 µM | 0 mm |
| O=C(NO)Nc1nc(/C=C/c2ccccc2)nc2sc3c(c12)CCCC3 | 10 mm | 11 mm | 12 mm | 6.54 µM | 3.27 µM | 10 mm |
| Cc1c2ccc(N)cc2nc2cc(Nc3nc(/C=C/c4ccccc4)nc4sc5c(c34)CCCC5)ccc12 | 21 mm | 20 mm | 12 mm | 0.58 µM | 1.36 µM | 12 mm |
| COc1cccc2c1C(=O)c1c(O)c3c(c(O)c1C2=O)C[C@@](O)(C(=O)CO)C[C@@H]3O[C@H]1C[C@H](N)[C@H](O)[C@H](C)O1 [DOXORUBICIN] | – | – | – | – | 7.36 µM | – |
